± gives the expanded uncertainty stated by the source.
Settings: 101.33 kPa, Liquid; for mass density: Vibrating tube method; for viscosity: surface light scattering

Structure (SMILES): CC(C)CCCCCCCOC(=O)c1ccccc1C(=O)OCCCCCCCC(C)C
- mass density (273.14 K): 980.74 ± 0.4 kg/m3
- mass density (278.15 K): 977.13 ± 0.39 kg/m3
- mass density (283.15 K): 973.51 ± 0.39 kg/m3
- viscosity (283.15 K): 265.6 ± 8.2 mPa·s
- mass density (288.15 K): 969.94 ± 0.39 kg/m3
- viscosity (288.15 K): 177.4 ± 5.7 mPa·s
- mass density (293.15 K): 966.43 ± 0.39 kg/m3
- viscosity (293.15 K): 123.8 ± 3.9 mPa·s
- viscosity (298.15 K): 88.44 ± 2.7 mPa·s
- mass density (298.16 K): 962.9 ± 0.39 kg/m3
- viscosity (303.15 K): 64.84 ± 2 mPa·s
- mass density (303.16 K): 959.36 ± 0.39 kg/m3
- viscosity (308.15 K): 48.98 ± 1.5 mPa·s
- mass density (308.16 K): 955.81 ± 0.39 kg/m3
- viscosity (313.15 K): 38.01 ± 1.1 mPa·s
- mass density (313.16 K): 952.27 ± 0.39 kg/m3
- mass density (318.16 K): 948.73 ± 0.38 kg/m3
- mass density (323.16 K): 945.19 ± 0.38 kg/m3
- mass density (328.16 K): 941.65 ± 0.38 kg/m3
- mass density (333.16 K): 938.12 ± 0.38 kg/m3
- mass density (338.16 K): 934.6 ± 0.38 kg/m3
- mass density (348.15 K): 927.54 ± 0.38 kg/m3
- mass density (353.15 K): 924.02 ± 0.38 kg/m3
- mass density (358.15 K): 920.5 ± 0.38 kg/m3
- mass density (363.15 K): 916.95 ± 0.37 kg/m3

Reference: the NIST ThermoML archive (doi:10.1021/je7001623)
